Molecules are shown by their SMILES. Converted amounts (≈) assume the structure as drawn. Some results are limits rather than exact numbers.

As usually defined, the MIC is the smallest concentration in the dilution series that meets the test's criterion for growth inhibition. A higher MIC goes with weaker potency.

Format in all cases: cell-based
For one assay, the system named is E. coli strain MP-4. Briefly: Broth dilution MIC determination (CLSI) against E. coli strain MP-4. To be noted: Escherichia coli, MP4. Summed up: (§1)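 CLSI broth microdilution, macrolide test compounds; MIC reported as category: ≤4 mg/L = +++, 8–<32 mg/L = ++, ≥32 mg/L = +.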
A general note: Dilution methods test growth across graded concentrations, often in twofold steps.

In assay [1] the test system is K. pneumoniae strain MP-548. Kind of assay: Broth dilution MIC determination (CLSI) against K. pneumoniae strain MP-548. The note with it: Klebsiella pneumoniae, MP548. Put shortly:
as §1

For assay [2], the system named is P. aeruginosa strain MP-3. Kind of assay: Broth dilution MIC determination (CLSI) against P. aeruginosa strain MP-3. The note with it: Pseudomonas aeruginosa, MP3. Put shortly: as §1
Assay [3] concerns A. baumannii strain MP-15. Briefly: Broth dilution MIC determination (CLSI) against A. baumannii strain MP-15. To be noted: Acinetobacter baumannii, MP15. Summed up:
as §1

Another assay concerns S. aureus strain MP-12. Kind of assay: Broth dilution MIC determination (CLSI) against S. aureus strain MP-12. The note with it: Staphylococcus aureus, MP12, strain MP-12. Summed up: as §1

Turning to `CC[C@H]1OC(=O)C(C)C(=O)[C@H](C)[C@@H](OC2OC(CNCC(=O)N(C)C)CC(N(C)C)C2O)[C@](C)(OC)C[C@@H](C)CN[C@H](C)[C@H]2NC(=O)O[C@@]21C` (some centres unmarked) [Compound 117, 3-Descladinosyl-3-oxo-6-O-methyl-N9a-desmethyl-11,12-dideoxy-12,11-(oxycarbonylimino)-6′-(N—(N,N-dimethylacetamidyl)-amino) Azithromycin], the MIC (with E. coli strain MP-4; in assay [1]; in assay [2]; in assay [3]; against S. aureus strain MP-12) was at least 32 µg/mL each time.

Turning to `CC[C@H]1OC(=O)C(C)C(=O)[C@H](C)[C@@H](OC2OC(CNC3CC3)CC(N(C)C)C2O)[C@](C)(OC)C[C@@H](C)CN[C@H](C)[C@H]2NC(=O)O[C@@]21C` (some centres unmarked) [Compound 118, 3-Descladinosyl-3-oxo-6-O-methyl-N9a-desmethyl-11,12-dideoxy-12,11-(oxycarbonylimino)-6′-cyclopropylamino Azithromycin], the MIC is at most 4 µg/mL with E. coli strain MP-4; at most 4 µg/mL in assay [1]; at least 32 µg/mL in assay [2]; at least 32 µg/mL in assay [3]; 8 to 32 µg/mL (≈ 12 to 47.8 µM) against S. aureus strain MP-12.

Regarding `CC[C@H]1OC(=O)C(C)C(=O)[C@H](C)[C@@H](OC2OC(CNC3CCC3)CC(N(C)C)C2O)[C@](C)(OC)C[C@@H](C)CN[C@H](C)[C@H]2NC(=O)O[C@@]21C` (some centres unmarked) [Compound 120, 3-Descladinosyl-3-oxo-6-O-methyl-N9a-desmethyl-11,12-dideoxy-12,11-(oxycarbonylimino)-6′-cyclobutylamino Azithromycin], the MIC against E. coli strain MP-4 was at most 4 µg/mL; in assay [1] it was at most 4 µg/mL; in assay [2] it was at least 32 µg/mL; in assay [3], at least 32 µg/mL; against S. aureus strain MP-12, at least 32 µg/mL.

On to `CC[C@H]1OC(=O)C(C)C(=O)[C@H](C)[C@@H](OC2OC(CN3CCC3)CC(N(C)C)C2O)[C@](C)(OC)C[C@@H](C)CN[C@H](C)[C@H]2NC(=O)O[C@@]21C` (some centres unmarked) [Compound 121, 3-Descladinosyl-3-oxo-6-O-methyl-N9a-desmethyl-11,12-dideoxy-12,11-(oxycarbonylimino)-6′-(1-azetininyl) Azithromycin], for which the MIC against E. coli strain MP-4 was 8 to 32 µg/mL (≈ 12 to 47.8 µM); in assay [1] it was at least 32 µg/mL; in assay [2] it was at least 32 µg/mL; in assay [3] it was at least 32 µg/mL; against S. aureus strain MP-12 it was at least 32 µg/mL.

As to `CC[C@H]1OC(=O)C(C)C(=O)[C@H](C)[C@@H](OC2OC(CN3CCCC3)CC(N(C)C)C2O)[C@](C)(OC)C[C@@H](C)CN[C@H](C)[C@H]2NC(=O)O[C@@]21C` (some centres unmarked) [Compound 122, 3-Descladinosyl-3-oxo-6-O-methyl-N9a-desmethyl-11,12-dideoxy-12,11-(oxycarbonylimino)-6′-(1-pyrrolodinyl) Azithromycin], the MIC in the assay on E. coli strain MP-4 was at most 4 µg/mL; in assay [1] it was 8 to 32 µg/mL (≈ 11.7 to 46.9 µM); in assay [2] it was at least 32 µg/mL; in assay [3], at least 32 µg/mL; with S. aureus strain MP-12, at least 32 µg/mL.

`CC[C@H]1OC(=O)C(C)C(=O)[C@H](C)[C@@H](OC2OC(CN3CCCCC3)CC(N(C)C)C2O)[C@](C)(OC)C[C@@H](C)CN[C@H](C)[C@H]2NC(=O)O[C@@]21C` (some centres unmarked) [Compound 123, 3-Desdadinosyl-3-oxo-6-O-methyl-N9a-desmethyl-11,12-dideoxy-12,11-(oxycarbonylimino)-6′-(1-piperidinyl) Azithromycin]: the MIC in the assay with E. coli strain MP-4 is at most 4 µg/mL; in assay [1], 8 to 32 µg/mL (≈ 11.5 to 45.9 µM); in assay [2], at least 32 µg/mL; in assay [3], at least 32 µg/mL; against S. aureus strain MP-12 it was at least 32 µg/mL.

For `CC[C@H]1OC(=O)C(C)C(=O)[C@H](C)[C@@H](OC2OC(CN3CCCCCC3)CC(N(C)C)C2O)[C@](C)(OC)C[C@@H](C)CN[C@H](C)[C@H]2NC(=O)O[C@@]21C` (some centres unmarked) [Compound 124, 3-Desdadinosyl-3-oxo-6-O-methyl-N9a-desmethyl-11,12-dideoxy-12,11-(oxycarbonylimino)-6′-(1-azepanyl) Azithromycin], the MIC with E. coli strain MP-4 was at most 4 µg/mL; in assay [1], 8 to 32 µg/mL (≈ 11.3 to 45 µM); in assay [2], at least 32 µg/mL; in assay [3], at least 32 µg/mL; with S. aureus strain MP-12, at least 32 µg/mL.

In the case of `CC[C@H]1OC(=O)C(C)C(=O)[C@H](C)[C@@H](OC2OC(CN3CCN(C(C)=O)CC3)CC(N(C)C)C2O)[C@](C)(OC)C[C@@H](C)CN[C@H](C)[C@H]2NC(=O)O[C@@]21C` (some centres unmarked) [Compound 125, 3-Descladinosyl-3-oxo-6-O-methyl-N9a-desmethyl-11,12-dideoxy-12,11-(oxycarbonylimino)-6′-(1-(4-acetyl)-piperazinyl) Azithromycin], the MIC (with E. coli strain MP-4; in assay [1]; in assay [2]; in assay [3]; against S. aureus strain MP-12) was at least 32 µg/mL throughout.

Turning to `CC[C@H]1OC(=O)C(C)C(=O)[C@H](C)[C@@H](OC2OC(CN3CCN(C)CC3)CC(N(C)C)C2O)[C@](C)(OC)C[C@@H](C)CN[C@H](C)[C@H]2NC(=O)O[C@@]21C` (some centres unmarked) [Compound 126, 3-Descladinosyl-3-oxo-6-O-methyl-N9a-desmethyl-11,12-dideoxy-12,11-(oxycarbonylimino)-6′-(1-(4-methyl)-piperazinyl) Azithromycin], the MIC against E. coli strain MP-4 is at most 4 µg/mL; in assay [1], 8 to 32 µg/mL (≈ 11.2 to 44.9 µM); in assay [2] it was at least 32 µg/mL; in assay [3], at least 32 µg/mL; against S. aureus strain MP-12 it was at least 32 µg/mL.

`CC[C@H]1OC(=O)C(C)C(=O)[C@H](C)[C@@H](OC2OC(CNCC(=O)OC)CC(N(C)C)C2O)[C@](C)(OC)C[C@@H](C)CN[C@H](C)[C@H]2NC(=O)O[C@@]21C` (some centres unmarked) [Compound 127, 3-Descladinosyl-3-oxo-6-O-methyl-N9a-desmethyl-11,12-dideoxy-12,11-(oxycarbonylimino)-6′-(methyl aminomethylcarboxylate) Azithromycin]: the MIC is at most 4 µg/mL against E. coli strain MP-4; 8 to 32 µg/mL (≈ 11.4 to 45.7 µM) in assay [1]; at least 32 µg/mL in assay [2]; at least 32 µg/mL in assay [3]; at least 32 µg/mL in the assay with S. aureus strain MP-12.

As for `CC[C@H]1OC(=O)C(C)C(=O)[C@H](C)[C@@H](OC2OC(CN3CC(O)C3)CC(N(C)C)C2O)[C@](C)(OC)C[C@@H](C)CN[C@H](C)[C@H]2NC(=O)O[C@@]21C` (some centres unmarked) [Compound 128, 3-Descladinosyl-3-oxo-6-O-methyl-N9a-desmethyl-11,12-dideoxy-12,11-(oxycarbonylimino)-6′-(3-hydroxy-1-azetidinyl) Azithromycin], the MIC (with E. coli strain MP-4; in assay [1]; in assay [2]; in assay [3]; in the assay on S. aureus strain MP-12) was at least 32 µg/mL throughout.

On to `CC[C@H]1OC(=O)C(C)C(=O)[C@H](C)[C@@H](OC2OC(CN(C)C3CC3)CC(N(C)C)C2O)[C@](C)(OC)C[C@@H](C)CN[C@H](C)[C@H]2NC(=O)O[C@@]21C` (some centres unmarked) [Compound 129, 3-Descladinosyl-3-oxo-6-O-methyl-N9a-desmethyl-11,12-dideoxy-12,11-(oxycarbonylimino)-6′-(N-methylcyclopropylamino) Azithromycin], for which the MIC in the assay with E. coli strain MP-4 was at most 4 µg/mL; in assay [1], 8 to 32 µg/mL (≈ 11.7 to 46.9 µM); in assay [2], at least 32 µg/mL; in assay [3] it was 8 to 32 µg/mL (≈ 11.7 to 46.9 µM); against S. aureus strain MP-12, 8 to 32 µg/mL (≈ 11.7 to 46.9 µM).

As to `CC[C@H]1OC(=O)C(C)C(=O)[C@H](C)[C@@H](OC2OC(CNCCN(C)C)CC(N(C)C)C2O)[C@](C)(OC)C[C@@H](C)CN[C@H](C)[C@H]2NC(=O)O[C@@]21C` (some centres unmarked) [Compound 130, 3-Descladinosyl-3-oxo-6-O-methyl-N9a-desmethyl-11,12-dideoxy-12,11-(oxycarbonylimino)-6′-[(2-dimethylamino)ethylamino]Azithromycin], the MIC (in the assay with E. coli strain MP-4; in assay [1]; in assay [2]; in assay [3]; against S. aureus strain MP-12) was at least 32 µg/mL each time.

In the case of `CC[C@H]1OC(=O)C(C)C(=O)[C@H](C)[C@@H](OC2OC(CN(C)CCOC)CC(N(C)C)C2O)[C@](C)(OC)C[C@@H](C)CN[C@H](C)[C@H]2NC(=O)O[C@@]21C` (some centres unmarked) [Compound 131, 3-Descladinosyl-3-oxo-6-O-methyl-N9a-desmethyl-11,12-dideoxy-12,11-(oxycarbonylimino)-6′-[N-(methyl)-2-methoxyethylamino]Azithromycin], the MIC in the assay with E. coli strain MP-4 is at most 4 µg/mL; in assay [1] it was 8 to 32 µg/mL (≈ 11.4 to 45.7 µM); in assay [2] it was at least 32 µg/mL; in assay [3], at least 32 µg/mL; in the assay on S. aureus strain MP-12 it was at least 32 µg/mL.

For the compound `CC[C@H]1OC(=O)C(C)C(=O)[C@H](C)[C@@H](OC2OC(CN3CCOCC3)CC(N(C)C)C2O)[C@](C)(OC)C[C@@H](C)CN[C@H](C)[C@H]2NC(=O)O[C@@]21C` (some centres unmarked) [Compound 132, 3-Descladinosyl-3-oxo-6-O-methyl-N9a-desmethyl-11,12-dideoxy-12,11-(oxycarbonylimino)-6′-(1-morpholino) Azithromycin], the minimal inhibitory concentration (MIC) in the assay on E. coli strain MP-4 is at most 4 µg/mL; in assay [1], 8 to 32 µg/mL (≈ 11.4 to 45.8 µM); in assay [2], at least 32 µg/mL; in assay [3], at least 32 µg/mL; against S. aureus strain MP-12, 8 to 32 µg/mL (≈ 11.4 to 45.8 µM).

Consider `CC[C@H]1OC(=O)C(C)C(=O)[C@H](C)[C@@H](OC2OC(CNC3(C)CC3)CC(N(C)C)C2O)[C@](C)(OC)C[C@@H](C)CN[C@H](C)[C@H]2NC(=O)O[C@@]21C` (some centres unmarked) [Compound 133, 3-Descladinosyl-3-oxo-6-O-methyl-N9a-desmethyl-11,12-dideoxy-12,11-(oxycarbonylimino)-6′-(1-methyl-1-cyclopropylamino) Azithromycin], for which the MIC was at most 4 µg/mL against E. coli strain MP-4; 8 to 32 µg/mL (≈ 11.7 to 46.9 µM) in assay [1]; at least 32 µg/mL in assay [2]; 8 to 32 µg/mL (≈ 11.7 to 46.9 µM) in assay [3]; 8 to 32 µg/mL (≈ 11.7 to 46.9 µM) in the assay with S. aureus strain MP-12.
